Molecular target: T1, Recombinant human mPGES-1 (Homo sapiens, UniProt O14684)
T1 construct: made in house; host or cells: CHO cells
T1 sequence (O14684 1-152): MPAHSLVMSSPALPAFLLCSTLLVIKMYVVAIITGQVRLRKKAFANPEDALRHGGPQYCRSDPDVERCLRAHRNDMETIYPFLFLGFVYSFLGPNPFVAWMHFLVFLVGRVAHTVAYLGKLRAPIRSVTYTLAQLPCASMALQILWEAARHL
Test: In-vitro mPGES-1 inhibitor screening (inhibition of PGE2 formation from PGH2, HTRF detection)
Type: biochemical
Conditions: for inhibition at 1 µM: 1 μM test compound, read-out: Percentage inhibition at 1 μM; for inhibition at 1 µM / inhibition at 10 µM: crude microsomal fraction, 15 μM PGH2; for inhibition at 10 µM: 10 μM test compound, read-out: Percentage inhibition at 10 μM; for IC50: class symbol, concentration response curve
Description: In-Vitro Protocol for Screening of mPGES-1 Inhibitors:
mPGES-1 (microsomal prostaglandin E synthase-1) is a microsomal enzyme that converts endoperoxide substrate PGH2 (prostaglandin H2) to product PGE2 (prostaglandin E2) by isomerization in the presence of reduced glutathione (GSH). mPGES-1 inhibitors were screened by assessing their ability to inhibit formation of PGE2 from PGH2 in presence of mPGES-1 using an anti-PGE2 antibody based detection method. Recombinant human mPGES-1 was generated in-house by expression in CHO cells (Ouellet M et al. (2002), Protein Expression and Purification 26: 489-495). The assay was set up using crude microsomal fractions at protein concentration of 40-60 μg/mL. Test compounds were prepared in 100% dimethyl sulfoxide (DMSO) to obtain 20 mM stock solution and then diluted using assay buffer comprising 0.1 M Potassium phosphate buffer with 2 mM EDTA. The final concentration of DMSO in reaction was 0.5% (v/v). Negative controls were comprised of all assay reagents except the enzyme. Positive controls were comprised of the enzyme reaction in the absence of any inhibitor. Test compounds were incubated for 10 minutes in assay buffer containing 2.5 mM GSH and mPGES-1 enzyme followed by addition of PGH2 at a concentration of 15 μM for 1 minute. The reaction was stopped by addition of Stannous chloride (11 mg/ml) and PGE2 levels were measured (Masse F et al. (2005), Journal of Biomolecular Screening 10(6) 599-605., Goedken R E et al. (2008), Journal of Biomolecular Screening 13(7): 619-625) by HTRF kit (CisBio)).
Inhibition of mPGES-1 enzyme activity was measured using the percent of reaction occurring in the positive control. Concentration response curves were plotted using percent inhibition of maximum enzyme reaction. The IC50 value was calculated from the concentration response curve by nonlinear regression analysis using GraphPad PRISM software.

inhibition at 1 µM [%]	inhibition at 10 µM [%]	IC50 [nM]	SMILES
99	98	< 50	CC(C)(C)C(=O)NCc1ccc(Cl)c(C(=O)Nc2cccc3c(Nc4cccc(C(F)(F)F)c4)ncnc23)n1 [Example-8, 3-Chloro-6-(pivalamidomethyl)-N-(4-((3-(trifluoromethyl)phenyl)amino)quinazolin-8-yl)picolinamide]
99.3	99.8	< 50	CC1(C)CCC(Oc2ncnc3c(NC(=O)c4c(Cl)ccc(CNC(=O)C(C)(C)C)c4F)cccc23)CC1 [Example-24, 6-Chloro-N-(4-((4,4-dimethylcyclohexyl)oxy)quinazolin-8-yl)-2-fluoro-3-(pivalamidomethyl)benzamide]
83.5	93.4	50 to 100	CC(C)Nc1ncnc2c(NC(=O)c3cc(CNC(=O)C(C)C)cnc3C(F)F)cccc12 [Example-76, 2-(Difluoromethyl)-5-(isobutyramidomethyl)-N-(4-(isopropylamino)quinazolin-8-yl)nicotinamide]
99.1	100	< 50	CC(C)(C)C(=O)NCc1ccc(Cl)c(C(=O)Nc2cccc3c(Oc4cccc(C(F)(F)F)c4)ncnc23)n1 [Example-9, 3-Chloro-6-(pivalamidomethyl)-N-(4-(3-(trifluoromethyl)phenoxy)quinazolin-8-yl)picolinamide]
96.5	99.6	< 50	Cc1ccc2c(Nc3cccc(C(F)(F)F)c3)ncnc2c1NC(=O)c1c(Cl)ccc(CNC(=O)C(C)(C)C)c1F [Example-42, 6-Chloro-2-fluoro-N-(7-methyl-4-((3-(trifluoromethyl)phenyl)amino)quinazolin-8-yl)-3-(pivalamidomethyl)benzamide]
83.3	94.8	< 50	CC(C)C(=O)NCc1cnc(C(F)F)c(C(=O)Nc2cccc3c(NCC(F)(F)F)ncnc23)c1 [Example-78, 2-(Difluoromethyl)-5-(isobutyramidomethyl)-N-(4-((2,2,2-trifluoroethyl)amino)quinazolin-8-yl)nicotinamide]
97.7	96.3	< 50	CC(C)(C)C(=O)NCc1ccc(Cl)c(C(=O)Nc2cccc3c(N[C@H]4CC[C@H](C(F)(F)F)CC4)ncnc23)c1F [Example-37, 6-Chloro-2-fluoro-3-(pivalamidomethyl)-N-(4-(((1r,4r)-4-(trifluoromethyl)cyclohexyl)amino)quinazolin-8-yl)benzamide]
100	98.8	< 50	CC(C)C(=O)NCc1ccc(Cl)c(C(=O)Nc2cccc3c(NC(C)(C)C)ncnc23)c1F [Example-70, N-(4-(tert-Butylamino)quinazolin-8-yl)-6-chloro-2-fluoro-3-(isobutyramidomethyl)benzamide]
97.3	97.2	< 50	CC(C)(C)C(=O)NCc1ccc(Cl)c(C(=O)Nc2cccc3c(Nc4cc(C(F)(F)F)ccc4F)ncnc23)c1F [Example-21, 6-Chloro-2-fluoro-N-(4-((2-fluoro-5-(trifluoromethyl)phenyl)amino)quinazolin-8-yl)-3-(pivalamidomethyl)benzamide]
98.8	99.4	< 50	CC(C)(C)C(=O)NCc1ccc(Cl)c(C(=O)Nc2cccc3c(NC4CCC(F)(F)CC4)ncnc23)c1F [Example-20, 6-Chloro-N-(4-((4,4-difluorocyclohexyl)amino)quinazolin-8-yl)-2-fluoro-3-(pivalamidomethyl)benzamide]
100	100	< 50	CC(C)(C)C(=O)NCc1ccc(Cl)c(C(=O)Nc2cccc3c(Nc4ccc(C(F)(F)F)cc4F)nccc23)c1 [Example-44, 2-Chloro-N-(1-((2-fluoro-4-(trifluoromethyl)phenyl)amino)isoquinolin-5-yl)-5-(pivalamidomethyl)benzamide]
99.8	100	< 50	Cc1ccc(CNC(=O)C(C)(C)C)c(C)c1C(=O)Nc1cccc2c(NC(C)(C)C)ncnc12 [Example-68, N-(4-(tert-Butylamino)quinazolin-8-yl)-2,6-dimethyl-3-(pivalamidomethyl)benzamide]
93.4	93.1	< 50	CC(C)(C)C(=O)NCc1ccc(Cl)c(C(=O)Nc2cccc3c(O[C@H]4CC[C@@H](C(F)(F)F)CC4)ncnc23)c1F [Example-26, 6-Chloro-2-fluoro-3-(pivalamidomethyl)-N-(4-(((1s,4s)-4-(trifluoromethyl)cyclohexyl)oxy)quinazolin-8-yl)benzamide]
74.1	96	> 100	Cc1nc(NC(C)C)c2cccc(NC(=O)c3c(Cl)ccc(CNC(=O)C(C)(C)C)c3F)c2n1 [Example-57, 6-Chloro-2-fluoro-N-(4-(isopropylamino)-2-methylquinazolin-8-yl)-3-(pivalamidomethyl)benzamide]
98.3	98.3	< 50	CC(C)(C)C(=O)NCc1ccc(Cl)c(C(=O)Nc2cccc3c(Oc4ccc(C(F)(F)F)cc4)ccnc23)c1F [Example-53, 6-Chloro-2-fluoro-3-(pivalamidomethyl)-N-(4-(4-(trifluoromethyl)phenoxy)quinolin-8-yl)benzamide]
86.5	91.7	> 100	Cc1nc(NC2CCC(F)(F)CC2)c2cccc(NC(=O)c3c(Cl)ccc(CNC(=O)C(C)(C)C)c3F)c2n1 [Example-60, 6-Chloro-N-(4-((4,4-difluorocyclohexyl)amino)-2-methylquinazolin-8-yl)-2-fluoro-3-(pivalamidomethyl)benzamide]
98.1	99.1	< 50	CC(C)(C)C(=O)NCc1ccc(Cl)c(C(=O)Nc2cccc3c(N[C@H]4CC[C@H](C(F)(F)F)CC4)nccc23)c1F [Example-36, 6-Chloro-2-fluoro-3-(pivalamidomethyl)-N-(1-(((1r,4r)-4-(trifluoromethyl)cyclohexyl)amino)isoquinolin-5-yl)benzamide]
88.7	93.2	< 50	CC(C)C(=O)NCc1ccc(Cl)c(C(=O)Nc2cccc3c(NCC(F)(F)F)ncnc23)c1F [Example-73, 6-Chloro-2-fluoro-3-(isobutyramidomethyl)-N-(4-((2,2,2-trifluoroethyl)amino)quinazolin-8-yl)benzamide]
97.4	90.7	< 50	CC(C)(C)C(=O)NCc1ccc(Cl)c(C(=O)Nc2cccc3c(Oc4cccc(C(F)(F)F)c4)ncnc23)c1F [Example-11, 6-Chloro-2-fluoro-3-(pivalamidomethyl)-N-(4-(3-(trifluoromethyl)phenoxy)quinazolin-8-yl)benzamide]
98.1	97.5	< 50	CC1(C)CCC(Oc2ncnc3c(NC(=O)c4cc(CNC(=O)C(C)(C)C)ccc4Cl)cccc23)CC1 [Example-15, 2-Chloro-N-(4-((4,4-dimethylcyclohexyl)oxy)quinazolin-8-yl)-5-(pivalamidomethyl)benzamide]
96	98.1	< 50	Cc1ccc(CNC(=O)C(C)(C)C)c(C)c1C(=O)Nc1cccc2c(Nc3cccc(C(F)(F)F)c3)nccc12 [Example-3, 2,6-Dimethyl-3-(pivalamidomethyl)-N-(1-((3-(trifluoromethyl)phenyl)amino)isoquinolin-5-yl)benzamide]
100	99.6	< 50	CC1(C)CCC(Nc2ncnc3c(NC(=O)c4c(Cl)ccc(CNC(=O)C(C)(C)C)c4F)cccc23)CC1 [Example-22, 6-Chloro-N-(4-((4,4-dimethylcyclohexyl)amino)quinazolin-8-yl)-2-fluoro-3-(pivalamidomethyl)benzamide]
99.4	99.7	< 50	CC(C)(C)C(=O)NCc1ccc(Cl)c(C(=O)Nc2cccc3c(Nc4cccc(C(F)(F)F)c4)ncnc23)c1F [Example-12, 6-Chloro-2-fluoro-3-(pivalamidomethyl)-N-(4-((3-(trifluoromethyl)phenyl)amino)quinazolin-8-yl)benzamide]

Reference: US9006257B2, “Bicyclic compounds as mPGES-1 inhibitors” (Glenmark Pharmaceuticals S.A., priority 2012, dated 2015)
